# Experimental data: ChEMBL document CHEMBL1145716, “Fagomine isomers and glycosides from Xanthocercis zambesiaca” (J Nat Prod, 1997)
# Tests used:
# [1] = Inhibition of rice alpha-glucosidase by glucose B-test; design: species or system Oryza sativa
# [2] = target: Sucrase-isomaltase, intestinal (Rattus norvegicus, UniProt P23739); assay: Inhibition of Wistar rat intestinal isomaltase by glucose B-test
# [3] = Inhibition of rat liver lysosomal beta-glucosidase by spectrophotometry
# [4] = Inhibition of Wistar rat intestinal cellobiase by glucose B-test
# [5] = Inhibition of almond beta-glucosidase by spectrophotometry; design: species or system Prunus dulcis
# [6] = species: Rattus norvegicus; assay: Inhibition of rat liver lysosomal alpha-galactosidase at 1000 uM by spectrophotometry
# [7] = test system: Coffea arabica; assay: Inhibition of green coffee bean alpha-galactosidase at 1000 uM by spectrophotometry
# [8] = Inhibition of rat liver beta-galactosidase by spectrophotometry
# [9] = Inhibition of bovine liver beta-galactosidase by spectrophotometry; design: species or system Bos taurus
# [10] = species: Rattus norvegicus; assay: Inhibition of Wistar rat intestinal cellobiase at 1000 uM by glucose B-test
# [11] = species: Rattus norvegicus; assay: Inhibition of rat liver lysosomal beta-glucosidase at 1000 uM by spectrophotometry
# [12] = test system: Prunus dulcis; assay: Inhibition of almond beta-glucosidase at 1000 uM by spectrophotometry
# [13] = Inhibition of green coffee bean alpha-galactosidase by spectrophotometry; design: species or system Coffea arabica
# [14] = test system: Oryza sativa; assay: Inhibition of rice alpha-glucosidase at 1000 uM by glucose B-test
# [15] = target: Sucrase-isomaltase, intestinal (Rattus norvegicus) (UniProt P23739); assay: Inhibition of Wistar rat intestinal isomaltase at 1000 uM by glucose B-test
# [16] = species: Rattus norvegicus; assay: Inhibition of rat liver beta-galactosidase at 1000 uM by spectrophotometry
# [17] = species: Bos taurus; assay: Inhibition of bovine liver beta-galactosidase at 1000 uM by spectrophotometry
# Chain of Sucrase-isomaltase, intestinal (Rattus norvegicus) (P23739 1-1013 limits assumed): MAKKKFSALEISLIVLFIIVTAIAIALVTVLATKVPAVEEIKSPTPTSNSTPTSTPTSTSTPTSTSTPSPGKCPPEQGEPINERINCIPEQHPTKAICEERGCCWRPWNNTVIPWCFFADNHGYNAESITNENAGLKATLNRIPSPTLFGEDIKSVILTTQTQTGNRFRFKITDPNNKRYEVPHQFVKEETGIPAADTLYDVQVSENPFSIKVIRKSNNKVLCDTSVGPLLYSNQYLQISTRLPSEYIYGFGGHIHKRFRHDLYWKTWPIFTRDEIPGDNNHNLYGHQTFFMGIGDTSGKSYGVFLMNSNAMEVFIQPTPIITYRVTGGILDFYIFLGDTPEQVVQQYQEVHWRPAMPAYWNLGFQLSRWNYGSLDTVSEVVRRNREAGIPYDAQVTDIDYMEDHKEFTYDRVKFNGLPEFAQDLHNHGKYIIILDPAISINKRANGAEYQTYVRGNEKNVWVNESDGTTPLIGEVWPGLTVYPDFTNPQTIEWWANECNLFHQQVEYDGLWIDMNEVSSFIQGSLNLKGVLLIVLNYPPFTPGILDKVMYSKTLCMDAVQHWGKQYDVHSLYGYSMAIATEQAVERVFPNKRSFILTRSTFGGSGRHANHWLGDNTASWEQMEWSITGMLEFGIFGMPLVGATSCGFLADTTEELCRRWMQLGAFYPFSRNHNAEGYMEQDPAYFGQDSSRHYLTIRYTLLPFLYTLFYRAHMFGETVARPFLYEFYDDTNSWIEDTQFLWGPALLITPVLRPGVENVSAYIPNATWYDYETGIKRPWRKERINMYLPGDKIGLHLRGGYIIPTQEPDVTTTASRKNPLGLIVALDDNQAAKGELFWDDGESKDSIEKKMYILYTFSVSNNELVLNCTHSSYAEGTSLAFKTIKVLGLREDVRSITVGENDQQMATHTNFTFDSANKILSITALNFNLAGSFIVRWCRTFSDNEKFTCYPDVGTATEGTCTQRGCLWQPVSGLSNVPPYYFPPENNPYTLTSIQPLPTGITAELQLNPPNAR
# Chain of Sucrase-isomaltase, intestinal (Rattus norvegicus) (P23739 1014-1841 limits assumed): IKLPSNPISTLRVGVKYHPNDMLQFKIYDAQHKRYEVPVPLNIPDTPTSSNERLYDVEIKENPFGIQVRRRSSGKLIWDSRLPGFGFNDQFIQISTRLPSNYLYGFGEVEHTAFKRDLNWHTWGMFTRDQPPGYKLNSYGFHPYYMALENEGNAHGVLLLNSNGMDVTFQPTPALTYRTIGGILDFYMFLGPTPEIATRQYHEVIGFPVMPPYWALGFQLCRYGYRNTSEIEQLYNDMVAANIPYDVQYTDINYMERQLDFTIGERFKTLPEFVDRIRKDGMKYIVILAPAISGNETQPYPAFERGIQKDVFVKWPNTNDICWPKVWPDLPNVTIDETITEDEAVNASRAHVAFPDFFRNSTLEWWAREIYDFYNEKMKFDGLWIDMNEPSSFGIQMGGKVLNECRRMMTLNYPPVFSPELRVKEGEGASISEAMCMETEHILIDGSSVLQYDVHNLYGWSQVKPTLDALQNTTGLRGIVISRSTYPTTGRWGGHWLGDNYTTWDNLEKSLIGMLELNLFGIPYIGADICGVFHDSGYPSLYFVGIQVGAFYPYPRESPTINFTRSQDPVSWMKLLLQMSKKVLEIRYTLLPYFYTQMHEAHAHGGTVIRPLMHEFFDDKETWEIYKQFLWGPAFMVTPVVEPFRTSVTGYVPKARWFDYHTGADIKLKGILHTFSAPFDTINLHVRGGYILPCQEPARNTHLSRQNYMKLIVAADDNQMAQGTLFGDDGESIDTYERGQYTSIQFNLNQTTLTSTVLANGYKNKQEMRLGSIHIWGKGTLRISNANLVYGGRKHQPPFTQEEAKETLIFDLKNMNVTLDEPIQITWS
# Chain of Sucrase-isomaltase, intestinal (P23739 1-1013 limits assumed): as the sequence (P23739 1-1013 limits assumed) above
# Chain of Sucrase-isomaltase, intestinal (P23739 1014-1841 limits assumed): as the sequence (P23739 1014-1841 limits assumed) above
IC50 [1] [µM],IC50 [2] [µM],IC50 [3] [µM],IC50 [4] [µM],IC50 [5] [µM],inhibition [6] [%],inhibition [7] [%],IC50 [8] [µM],IC50 [9] [µM],inhibition [10] [%],inhibition [11] [%],inhibition [12] [%],IC50 [13] [µM],inhibition [14] [%],inhibition [15] [%],inhibition [16] [%],inhibition [17] [%],Structure (SMILES)
120,6,740,100,120,< 50,< 50,4,3,,,,,,,,,OC[C@H]1NCC[C@H](O)[C@@H]1O
320,46,,,,< 50,,15,,< 50,< 50,< 50,56,,,,,OC[C@H]1NCC[C@@H](O)[C@@H]1O [FAGOMINE]
,,,,,< 50,< 50,,,< 50,< 50,< 50,,< 50,< 50,< 50,< 50,OC[C@H]1NCC[C@H](O)[C@H]1O
,,,,,< 50,< 50,,,< 50,< 50,< 50,,< 50,< 50,< 50,< 50,OC[C@H]1NCC[C@@H](O)[C@@H]1O[C@@H]1O[C@H](CO)[C@@H](O)[C@H](O)[C@H]1O
,,,,,< 50,< 50,,,< 50,< 50,< 50,,< 50,< 50,< 50,< 50,OC[C@H]1NCC[C@@H](O[C@@H]2O[C@H](CO)[C@@H](O)[C@H](O)[C@H]2O)[C@@H]1O
